Entries after “also recorded” stand apart in the source; their conditions may differ.
Experiments:
[1] = Laboratory assessments (prolactin, lipids), Clinical Study One; format: in vivo, human
Source text: METHOD: A 6-Week randomized, placebo-controlled, risperidone-referenced dose-finding study included 589 randomized patients with an acute exacerbation of schizophrenia (DSM-IV-TR). […] The change in the Positive and Negative Symptom Scale (PANSS) total score, from baseline to endpoint, was the primary outcome measure. Secondary efficacy measures included: PANSS positive, PANSS negative, PANSS general psychopathology (GPP) score, PANSS-derived Brief Psychiatric Rating Scale (BPRS) score, Clinical Global Impressions-Severity of Illness (CGI-S), CGI-Improvement (CGI-I) scores, and responder rates. Safety and tolerability evaluations included extrapyramidal symptoms (EPS), weight gain, lipid profile, and serum prolactin. Risperidone was included for assay sensitivity.

[2] = tested on: patients with chronic schizophrenia; assay: PANSS total score, Clinical Study Four; format: in vivo, human; conditions: FAS, ANCOVA; for Adjusted Mean Change from Baseline in PANSS Total Score, Difference to PBO Mean: Week 6 (day 42)
Method: METHODOLOGY: This study was a multinational, multicenter, randomized, double-blind, parallel-group, placebo-controlled, fixed-dose study. The study consisted of a 3- to 6-day antipsychotic-free run-in period, after which patients were randomised to 6 months of double-blind treatment with fixed doses of bifeprunox (20 mg/day (BX20) or 30 mg/day (BX30)) or placebo (PBO). Patients allocated to the BX groups were up-titrated from 0.25 mg/day over 7 days (BX20) or 8 days (BX30), and then continued on these doses for the remainder of the study. […] At predetermined time points, blood samples were obtained for drug concentration analysis of BX and its major metabolites (3′- and 4′-sulfate conjugates of BX), and pharmaco-economic assessments were performed.

O=c1[nH]c2cccc(N3CCN(Cc4cccc(-c5ccccc5)c4)CC3)c2o1 [Bifeprunox, 7-[4-([1,1′-biphenyl]-3-ylmethyl)-1-piperazinyl]-2(3H)-benzoxazolone]
prolactin ([1]; bifeprunox 5-20 mg, 6 weeks, vs placebo): decreased prolactin levels; also recorded: a decrease in prolactin compared with the placebo group
non-fasting triglycerides and total cholesterol compared to placebo ([1]; bifeprunox, 6 weeks (Example 4)): statistically significant improvements
Adjusted Mean Change from Baseline in PANSS Total Score, Difference to PBO Mean ([2]; BX20 (bifeprunox 20 mg/day), LOCF): −5.07
Adjusted Mean Change from Baseline in PANSS Total Score, Difference to PBO Mean ([2]; BX30 (bifeprunox 30 mg/day), LOCF): −3.71
Adjusted Mean Change from Baseline in PANSS Total Score, Least Squares Estimates Mean ([2]; Day 7, LOCF, listed as BX20): −1.89
Change from Baseline in PANSS Total Score, Difference to PBO Mean ([2]; Day 7, LOCF, listed as BX20): −1.30
Adjusted Mean Change from Baseline in PANSS Total Score, Least Squares Estimates Mean ([2]; Day 7, LOCF, listed as BX30): −0.73
Change from Baseline in PANSS Total Score, Difference to PBO Mean ([2]; Day 7, LOCF, listed as BX30): −0.14
Adjusted Mean Change from Baseline in PANSS Total Score, Least Squares Estimates Mean ([2]; Day 7, OC, listed as BX20): −1.89
Change from Baseline in PANSS Total Score, Difference to PBO Mean ([2]; Day 7, OC, listed as BX20): −1.30
Adjusted Mean Change from Baseline in PANSS Total Score, Least Squares Estimates Mean ([2]; Day 7, OC, listed as BX30): −0.73
Change from Baseline in PANSS Total Score, Difference to PBO Mean ([2]; Day 7, OC, listed as BX30): −0.14
Adjusted Mean Change from Baseline in PANSS Total Score, Least Squares Estimates Mean ([2]; Day 7, POCF, listed as BX20): −2.81
Change from Baseline in PANSS Total Score, Difference to PBO Mean ([2]; Day 7, POCF, listed as BX20): −1.33
Adjusted Mean Change from Baseline in PANSS Total Score, Least Squares Estimates Mean ([2]; Day 7, POCF, listed as BX30): −2.23
Change from Baseline in PANSS Total Score, Difference to PBO Mean ([2]; Day 7, POCF, listed as BX30): −0.76
Adjusted Mean Change from Baseline in PANSS Total Score, Least Squares Estimates Mean ([2]; Day 14, LOCF, listed as BX20): −3.03
Change from Baseline in PANSS Total Score, Difference to PBO Mean ([2]; Day 14, LOCF, listed as BX20): −2.38
Adjusted Mean Change from Baseline in PANSS Total Score, Least Squares Estimates Mean ([2]; Day 14, LOCF, listed as BX30): −1.45
Change from Baseline in PANSS Total Score, Difference to PBO Mean ([2]; Day 14, LOCF, listed as BX30): −0.79
Adjusted Mean Change from Baseline in PANSS Total Score, Least Squares Estimates Mean ([2]; Day 14, OC, listed as BX20): −4.77
Change from Baseline in PANSS Total Score, Difference to PBO Mean ([2]; Day 14, OC, listed as BX20): −2.39
Adjusted Mean Change from Baseline in PANSS Total Score, Least Squares Estimates Mean ([2]; Day 14, OC, listed as BX30): −4.43
Change from Baseline in PANSS Total Score, Difference to PBO Mean ([2]; Day 14, OC, listed as BX30): −2.05
Adjusted Mean Change from Baseline in PANSS Total Score, Least Squares Estimates Mean ([2]; Day 14, POCF, listed as BX20): −5.48
Change from Baseline in PANSS Total Score, Difference to PBO Mean ([2]; Day 14, POCF, listed as BX20): −2.61
Adjusted Mean Change from Baseline in PANSS Total Score, Least Squares Estimates Mean ([2]; Day 14, POCF, listed as BX30): −4.65
Change from Baseline in PANSS Total Score, Difference to PBO Mean ([2]; Day 14, POCF, listed as BX30): −1.78
Adjusted Mean Change from Baseline in PANSS Total Score, Least Squares Estimates Mean ([2]; Day 28, LOCF, listed as BX20): −.327
Change from Baseline in PANSS Total Score, Difference to PBO Mean ([2]; Day 28, LOCF, listed as BX20): −3.34
Adjusted Mean Change from Baseline in PANSS Total Score, Least Squares Estimates Mean ([2]; Day 28, LOCF, listed as BX30): −2.13
Change from Baseline in PANSS Total Score, Difference to PBO Mean ([2]; Day 28, LOCF, listed as BX30): −2.20
Adjusted Mean Change from Baseline in PANSS Total Score, Least Squares Estimates Mean ([2]; Day 28, OC, listed as BX20): −7.61
Change from Baseline in PANSS Total Score, Difference to PBO Mean ([2]; Day 28, OC, listed as BX20): −4.09
Adjusted Mean Change from Baseline in PANSS Total Score, Least Squares Estimates Mean ([2]; Day 28, OC, listed as BX30): −7.14
Change from Baseline in PANSS Total Score, Difference to PBO Mean ([2]; Day 28, OC, listed as BX30): −3.63
Adjusted Mean Change from Baseline in PANSS Total Score, Least Squares Estimates Mean ([2]; Day 28, POCF, listed as BX20): −7.74
Change from Baseline in PANSS Total Score, Difference to PBO Mean ([2]; Day 28, POCF, listed as BX20): −3.63
Adjusted Mean Change from Baseline in PANSS Total Score, Least Squares Estimates Mean ([2]; Day 28, POCF, listed as BX30): −6.85
Change from Baseline in PANSS Total Score, Difference to PBO Mean ([2]; Day 28, POCF, listed as BX30): −2.74
Adjusted Mean Change from Baseline in PANSS Total Score, Least Squares Estimates Mean ([2]; Day 42, LOCF, listed as BX20): −4.01
Change from Baseline in PANSS Total Score, Difference to PBO Mean ([2]; Day 42, LOCF, listed as BX20): −5.07
Adjusted Mean Change from Baseline in PANSS Total Score, Least Squares Estimates Mean ([2]; Day 42, LOCF, listed as BX30): −2.65
Change from Baseline in PANSS Total Score, Difference to PBO Mean ([2]; Day 42, LOCF, listed as BX30): −3.71
Adjusted Mean Change from Baseline in PANSS Total Score, Least Squares Estimates Mean ([2]; Day 42, OC, listed as BX20): −12.40
Change from Baseline in PANSS Total Score, Difference to PBO Mean ([2]; Day 42, OC, listed as BX20): −6.14
Adjusted Mean Change from Baseline in PANSS Total Score, Least Squares Estimates Mean ([2]; Day 42, OC, listed as BX30): −11.23
Change from Baseline in PANSS Total Score, Difference to PBO Mean ([2]; Day 42, OC, listed as BX30): −4.97
Adjusted Mean Change from Baseline in PANSS Total Score, Least Squares Estimates Mean ([2]; Day 42, POCF, listed as BX20): −9.40
Change from Baseline in PANSS Total Score, Difference to PBO Mean ([2]; Day 42, POCF, listed as BX20): −4.32
Adjusted Mean Change from Baseline in PANSS Total Score, Least Squares Estimates Mean ([2]; Day 42, POCF, listed as BX30): −8.12
Change from Baseline in PANSS Total Score, Difference to PBO Mean ([2]; Day 42, POCF, listed as BX30): −3.05
Adjusted Mean Change from Baseline in PANSS Total Score, Least Squares Estimates Mean ([2]; Day 63, LOCF, listed as BX20): −3.22
Change from Baseline in PANSS Total Score, Difference to PBO Mean ([2]; Day 63, LOCF, listed as BX20): −5.47
Adjusted Mean Change from Baseline in PANSS Total Score, Least Squares Estimates Mean ([2]; Day 63, LOCF, listed as BX30): −2.44
Change from Baseline in PANSS Total Score, Difference to PBO Mean ([2]; Day 63, LOCF, listed as BX30): −4.68
Adjusted Mean Change from Baseline in PANSS Total Score, Least Squares Estimates Mean ([2]; Day 63, OC, listed as BX20): −12.85
Change from Baseline in PANSS Total Score, Difference to PBO Mean ([2]; Day 63, OC, listed as BX20): −4.52
Adjusted Mean Change from Baseline in PANSS Total Score, Least Squares Estimates Mean ([2]; Day 63, OC, listed as BX30): −12.45
Change from Baseline in PANSS Total Score, Difference to PBO Mean ([2]; Day 63, OC, listed as BX30): −4.12
Adjusted Mean Change from Baseline in PANSS Total Score, Least Squares Estimates Mean ([2]; Day 63, POCF, listed as BX20): −10.03
Change from Baseline in PANSS Total Score, Difference to PBO Mean ([2]; Day 63, POCF, listed as BX20): −4.83
Adjusted Mean Change from Baseline in PANSS Total Score, Least Squares Estimates Mean ([2]; Day 63, POCF, listed as BX30): −8.97
Change from Baseline in PANSS Total Score, Difference to PBO Mean ([2]; Day 63, POCF, listed as BX30): −3.77
Adjusted Mean Change from Baseline in PANSS Total Score, Least Squares Estimates Mean ([2]; Day 90, LOCF, listed as BX20): −2.18
Change from Baseline in PANSS Total Score, Difference to PBO Mean ([2]; Day 90, LOCF, listed as BX20): −5.85

Source: US20090068290A1, “BIFEPRUNOX DOSES FOR TREATING SCHIZOPHRENIA” (priority 2006, published 2009)
